{"source": "patent US11072585B2", "about": "(PharmAkea, Inc., priority 2015, dated 2021)", "note": "Counter-ions that a name gives are not always drawn."}
{"target": "human LOXL2 (Homo sapiens (Human), UniProt Q9Y4K0)", "sequence (Q9Y4K0 26-774)": "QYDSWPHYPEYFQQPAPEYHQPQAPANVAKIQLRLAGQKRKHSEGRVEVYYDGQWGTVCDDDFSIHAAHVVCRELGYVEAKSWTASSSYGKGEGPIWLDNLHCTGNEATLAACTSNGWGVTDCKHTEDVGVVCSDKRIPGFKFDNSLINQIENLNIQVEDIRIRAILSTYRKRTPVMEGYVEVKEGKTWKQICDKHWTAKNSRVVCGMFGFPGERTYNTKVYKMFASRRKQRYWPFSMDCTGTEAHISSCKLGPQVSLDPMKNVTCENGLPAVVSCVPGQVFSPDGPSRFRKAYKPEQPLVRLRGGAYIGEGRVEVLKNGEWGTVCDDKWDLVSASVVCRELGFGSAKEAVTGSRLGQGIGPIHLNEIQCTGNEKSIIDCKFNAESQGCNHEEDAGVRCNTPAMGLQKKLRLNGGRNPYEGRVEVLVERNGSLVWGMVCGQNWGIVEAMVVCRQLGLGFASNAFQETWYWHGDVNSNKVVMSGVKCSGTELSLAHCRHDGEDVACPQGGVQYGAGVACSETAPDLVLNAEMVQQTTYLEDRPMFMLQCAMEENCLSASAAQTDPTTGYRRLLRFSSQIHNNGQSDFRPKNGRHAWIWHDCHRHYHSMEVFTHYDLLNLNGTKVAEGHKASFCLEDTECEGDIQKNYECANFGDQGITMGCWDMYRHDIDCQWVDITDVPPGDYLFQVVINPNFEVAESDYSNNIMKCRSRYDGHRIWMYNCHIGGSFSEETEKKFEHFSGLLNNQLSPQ", "experiment": "Human LOXL2 amine oxidase activity assay (Amplex Red)", "type": "biochemical", "details": "concentrated conditioned media from CHO cells stably expressing human LOXL2; 2 h at 37° C. with compound; DAP substrate", "how_it_was_run": "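Concentrated conditioned medium from CHO cells stably expressing human LOXL2 was preincubated with compound for 2 h at 37 °C in 50 mM borate, pH 8. 1,5-diaminopentane substrate and Amplex Red/HRP were then added. Fluorescence (544/590) was read kinetically every 2 min for 1 h, with activity taken from the linear slope.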", "units": {"IC50": "µM"}}
{"compound": "NCc1cc(Oc2cccc(C(=O)N3CC4(CCOCC4)C3)c2)nc(C(F)(F)F)c1", "note": "[Compound 1-207, (3-((4-(Aminomethyl)-6-(trifluoromethyl)pyridin-2-yl)oxy)phenyl)(7-oxa-2-azaspiro[3.5]nonan-2-yl)methanone hydrochloride]", "IC50": "< 0.3"}
{"compound": "CC(C)(O)CNC(=O)c1cccc(Oc2cc(CN)cc(C(F)(F)F)n2)c1", "note": "[Compound 1-32, 3-((4-(Aminomethyl)-6-(trifluoromethyl)pyridin-2-yl)oxy)-N-(2-hydroxy-2-methylpropyl)benzamide hydrochloride]", "IC50": "< 0.3"}
{"compound": "CCc1ccc(NC(=O)c2cccc(Oc3cc(CN)cc(C(F)(F)F)n3)c2)cc1", "note": "[Compound 1-246, 3-((4-(Aminomethyl)-6-(trifluoromethyl)pyridin-2-yl)oxy)-N-(4-ethylphenyl)benzamide hydrochloride]", "IC50": "< 0.3"}
{"compound": "C#C[C@@H](CC(=O)OC)NC(=O)c1cccc(Oc2cc(CN)cc(C(F)(F)F)n2)c1", "note": "[Compound 1-222, Methyl (R)-3-(3-((4-(aminomethyl)-6-(trifluoromethyl)pyridin-2-yl)oxy)benzamido)pent-4-ynoate hydrochloride]", "IC50": "< 0.3"}
{"compound": "NCc1cc(Oc2cccc(C(=O)NCc3cc4ccccc4s3)c2)nc(C(F)(F)F)c1", "note": "[Compound 1-10, 3-((4-(Aminomethyl)-6-(trifluoromethyl)pyridin-2-yl)oxy)-N-(benzo[b]thiophen-2-ylmethyl)benzamide hydrochloride]", "IC50": "< 0.3"}
{"compound": "NCc1cc(O[C@H]2CCCN(C(=O)Nc3ccccc3)C2)nc(C(F)(F)F)c1", "note": "[Compound 1-44, (S)-3-((4-(Aminomethyl)-6-(trifluoromethyl)pyridin-2-yl)oxy)-N-phenylpiperidine-1-carboxamide trifluoroacetate]", "IC50": "< 0.3"}
{"compound": "NCc1cc(Oc2cccc(-c3cn[nH]c3)c2)nc(C(F)(F)F)c1", "note": "[Compound 1-6, (2-(3-(1H-Pyrazol-4-yl)phenoxy)-6-(trifluoromethyl)pyridin-4-yl)methanamine trifluoroacetate]", "IC50": "< 0.3"}
{"compound": "NCc1cc(O[C@H]2CCCN(C(=O)c3cc(=O)c4ccccc4o3)C2)nc(C(F)(F)F)c1", "note": "[Compound 1-48, (S)-2-(3-((4-(Aminomethyl)-6-(trifluoromethyl)pyridin-2-yl)oxy)piperidine-1-carbonyl)-4H-chromen-4-one trifluoroacetate]", "IC50": "< 0.3"}
{"compound": "NCc1cc(Oc2cccc(Nc3ccccc3)c2)nc(C(F)(F)F)c1", "note": "[Compound 1-5, 3-((4-(Aminomethyl)-6-(trifluoromethyl)pyridin-2-yl)oxy)-N-phenylaniline]", "IC50": "< 0.3"}
{"compound": "NCc1cc(NCc2cccc(C(=O)N3CC[C@H](O)C3)c2)nc(C(F)(F)F)c1", "note": "[Compound 1-237, (S)-(3-(((4-(Aminomethyl)-6-(trifluoromethyl)pyridin-2-yl)amino)methyl)phenyl)(3-hydroxypyrrolidin-1-yl)methanone hydrochloride]", "IC50": "0.3 to 1"}
{"compound": "Cc1cc(=O)n(Cc2cc(CN)cc(C(F)(F)F)n2)c(=O)n1CCO", "note": "[Compound 1-135, 3-((4-(Aminomethyl)-6-(trifluoromethyl)pyridin-2-yl)methyl)-1-(2-hydroxyethyl)-6-methylpyrimidine-2,4(1H,3H)-dione hydrochloride]", "IC50": "> 1"}
{"compound": "NCc1cc(Oc2cccc3c2CCC(=O)N3CCO)nc(C(F)(F)F)c1", "note": "[Compound 1-60, 5-((4-(Aminomethyl)-6-(trifluoromethyl)pyridin-2-yl)oxy)-1-(2-hydroxyethyl)-3,4-dihydroquinolin-2(1H)-one hydrochloride]", "IC50": "0.3 to 1"}
{"compound": "NCc1cc(Oc2cccc(C(=O)N3C[C@@H](F)[C@@H](O)C3)c2)nc(C(F)(F)F)c1", "note": "(single isomer, unassigned) [Compound 1-251, (R,S) or (S,R)-cis-(3-((4-(Aminomethyl)-6-(trifluoromethyl)pyridin-2-yl)oxy)phenyl)(3-fluoro-4-hydroxypyrrolidin-1-yl)methanone hydrochloride]", "IC50": "< 0.3"}
{"compound": "NCc1cc(Oc2cccc(C(=O)N3CC[C@@H](F)C3)c2)nc(C(F)(F)F)c1", "note": "[Compound 1-212, (R)-(3-((4-(Aminomethyl)-6-(trifluoromethyl)pyridin-2-yl)oxy)phenyl)(3-fluoropyrrolidin-1-yl)methanone hydrochloride]", "IC50": "< 0.3"}
{"compound": "NCc1cc(Oc2cccc(C(=O)N3C[C@@H](F)[C@@H](O)C3)c2)nc(C(F)(F)F)c1", "note": "(single isomer, unassigned) [Compound 1-250, (R,S) or (S,R)-cis-(3-((4-(Aminomethyl)-6-(trifluoromethyl)pyridin-2-yl)oxy)phenyl)(3-fluoro-4-hydroxypyrrolidin-1-yl)methanone hydrochloride]", "IC50": "< 0.3"}
{"compound": "NCc1cc(Oc2cccc(C(=O)NCCN3CCOC3=O)c2)nc(C(F)(F)F)c1", "note": "[Compound 1-28, 3-((4-(Aminomethyl)-6-(trifluoromethyl)pyridin-2-yl)oxy)-N-(2-(2-oxooxazolidin-3-yl)ethyl)benzamide]", "IC50": "< 0.3"}
{"compound": "CC1(O)CCN(C(=O)c2cccc(Oc3cc(CN)cc(C(F)(F)F)n3)c2)CC1", "note": "[Compound 1-205, (3-((4-(Aminomethyl)-6-(trifluoromethyl)pyridin-2-yl)oxy)phenyl)(4-hydroxy-4-methylpiperidin-1-yl)methanone hydrochloride]", "IC50": "< 0.3"}
{"compound": "NCc1cc(Oc2cccc(C(=O)NCC3CCC(=O)N3)c2)nc(C(F)(F)F)c1", "note": "(racemic) [Compound 1-29, Racemic-3-((4-(aminomethyl)-6-(trifluoromethyl)pyridin-2-yl)oxy)-N-((5-oxopyrrolidin-2-yl)methyl)benzamide hydrochloride]", "IC50": "< 0.3"}
{"compound": "NCc1cc(Oc2cccc(C(=O)NCCCCc3cn(-c4ccccc4)nn3)c2)nc(C(F)(F)F)c1", "note": "[Compound 1-217, 3-((4-(Aminomethyl)-6-(trifluoromethyl)pyridin-2-yl)oxy)-N-(4-(1-phenyl-1H-1,2,3-triazol-4-yl)butyl)benzamide hydrochloride]", "IC50": "< 0.3"}
{"compound": "NCc1cc(Oc2cccc(COc3ccccc3)c2)nc(C(F)(F)F)c1", "note": "[Compound 1-4, (2-(3-(Phenoxymethyl)phenoxy)-6-(trifluoromethyl)pyridin-4-yl)methanamine trifluoroacetate]", "IC50": "< 0.3"}
{"compound": "NCc1cc(O[C@H]2CCCN(C(=O)Cc3ccc(Cl)c(Cl)c3)C2)nc(C(F)(F)F)c1", "note": "[Compound 1-47, (S)-1-(3-((4-(Aminomethyl)-6-(trifluoromethyl)pyridin-2-yl)oxy)piperidin-1-yl)-2-(3,4-dichlorophenyl)ethanone trifluoroacetate]", "IC50": "< 0.3"}
{"compound": "NCc1cc(Oc2cccc(C(=O)N3C[C@@H](F)[C@@H](O)C3)c2)nc(C(F)(F)F)c1", "note": "(racemic) [Compound 1-211, Racemic-cis-(3-((4-(aminomethyl)-6-(trifluoromethyl)pyridin-2-yl)oxy)phenyl)(3-fluoro-4-hydroxypyrrolidin-1-yl)methanone hydrochloride]", "IC50": "< 0.3"}
{"compound": "NCc1cc(Oc2cccc(C(=O)N[C@H]3COCC[C@@H]3O)c2)nc(C(F)(F)F)c1", "note": "[Compound 1-208, 3-((4-(Aminomethyl)-6-(trifluoromethyl)pyridin-2-yl)oxy)-N-((3S,4S)-4-hydroxytetrahydro-2H-pyran-3-yl)benzamide hydrochloride]", "IC50": "< 0.3"}
{"compound": "N=C(N)NC(=O)Cn1ccc2c(Oc3cc(CN)cc(C(F)(F)F)n3)cccc21", "note": "[Compound 1-234, 2-(4-((4-(Aminomethyl)-6-(trifluoromethyl)pyridin-2-yl)oxy)-1H-indol-1-yl)-N-carbamimidoylacetamide dihydrochloride]", "IC50": "> 1"}
